This note sets out measurements from the NIST ThermoML archive (doi:10.1016/j.fluid.2011.05.004).

For the series the following is noted: Liquid, Chromatography.

For `CC(C)CC(C)(C)C` [2,2,4-trimethylpentane], the “vapor or sublimation pressure” value reads like this: (323.65 K) 20 kPa; (372.33 K) 101.3 kPa.
Regarding `CCC(C)=O` [butanone], the “vapor or sublimation pressure” value is, setting by setting: (309.65 K) 20 kPa; (319.95 K) 30 kPa; (352.68 K) 101.3 kPa.
In the case of `CCCCCCC` [heptane], the “vapor or sublimation pressure” value stood at 20 kPa (324.56 K) and 101.3 kPa (371.35 K).
As to `CCCCCC` [hexane], the “vapor or sublimation pressure” value is given as 30 kPa (307.66 K) and 101.3 kPa (341.79 K).

For orientation: vapor or sublimation pressure means the pressure of vapour in equilibrium with the condensed phase.
